Data reported in patent publication US7205410B2, “4-(aminomethyl)-piperidine benzamides for treating gastrointestinal disorders” (Janssen Pharmaceutica, N.V., priority 1998, dated 2007).

system: not given; assay: not given; settings: not given

melting point [°C] | SMILES
112 | CCCCN1CC[C@@H](CNC(=O)c2cc(Cl)cc3c2OCCO3)[C@H](O)C1 (racemic) [Compound 64, (±)-(trans)-N-[(1-butyl-3-hydroxy-4-piperidinyl)methyl]-7-chloro-2,3-dihydro-1,4-benzodioxin-5-carboxamide]

target: T1, 5HT4 (Rattus norvegicus, UniProt Q62758); assay: 5HT4 antagonism in rat oesophageal tunica muscularis mucosae; type: cell-based; settings: 5HT4 antagonistic data; isolated rat oesophageal tunica muscularis mucosae, method of Baxter et al.
T1 construct: 5HT4 Antagonism in Rat Oesophageal Tunica Muscularis Mucosae; from tissue; host or cells: rat oesophageal tunica muscularis mucosae
T1 sequence (Q62758 whole entry): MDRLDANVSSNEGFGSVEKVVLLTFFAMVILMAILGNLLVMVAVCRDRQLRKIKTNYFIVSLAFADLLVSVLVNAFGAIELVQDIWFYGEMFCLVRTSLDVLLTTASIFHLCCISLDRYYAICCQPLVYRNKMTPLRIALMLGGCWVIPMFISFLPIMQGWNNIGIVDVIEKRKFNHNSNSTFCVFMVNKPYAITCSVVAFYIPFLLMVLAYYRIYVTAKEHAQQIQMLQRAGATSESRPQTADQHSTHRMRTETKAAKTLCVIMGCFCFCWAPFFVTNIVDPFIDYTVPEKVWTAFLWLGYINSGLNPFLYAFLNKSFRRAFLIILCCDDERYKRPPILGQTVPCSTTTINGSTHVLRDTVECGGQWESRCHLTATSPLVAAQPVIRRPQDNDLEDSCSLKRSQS
Protocol: 5HT4 Antagonism in Rat Oesophageal Tunica Muscularis Mucosae
The 5HT4 antagonistic potence of the present compounds was measured as described in Baxter G. S. et. al, Naunyn-Schmiedeberg's Arch. Pharmacol., 343, 439-446 ([…]).
The pA2 value is calculated as follows: [formula]

SMILES | pA2
CCCCN1CCC(CNC(=O)c2cc(Cl)cc3c2OCC3)C(O)C1 (stereo not shown) [Compound 1] | 8.53
CCCCN1CCC(CNC(=O)c2cc(Cl)cc3c2OCC3)C(O)C1 (stereo not shown) [Compound 2] | 10.5
COCCCN1CCC(CNC(=O)c2cc(Cl)cc3c2OCC3)C(O)C1 (stereo not shown) [Compound 3] | 8.07
O=C(NCC1CCN(Cc2ccccc2)CC1O)c1cc(Cl)cc2c1OCC2 (stereo not shown) [Compound 11] | 8.76
O=C(NCC1CCN(Cc2ccccc2)CC1O)c1cc(Cl)cc2c1OCC2 (stereo not shown) [Compound 12] | 10.2
O=C(NCC1CCN(CCCOc2ccc(F)cc2)CC1O)c1cc(Cl)cc2c1OCC2 (stereo not shown) [Compound 13] | 8.35
O=C(NCC1CCN(CCCOc2ccc(F)cc2)CC1O)c1cc(Cl)cc2c1OCC2 (stereo not shown) [Compound 14] | 9.2
O=C(CN1CCC(CNC(=O)c2cc(Cl)cc3c2OCC3)C(O)C1)c1ccccc1 (stereo not shown) [Compound 15] | 8.4
CS(=O)(=O)NCCN1CCC(CNC(=O)c2cc(Cl)cc3c2OCC3)C(O)C1 (stereo not shown) [Compound 17] | 9.6
O=C(NCC1CCN(CCOCCO)CC1O)c1cc(Cl)cc2c1OCC2 (stereo not shown) [Compound 29] | 9.6
COC(=O)CCCN1CCC(CNC(=O)c2cc(Cl)cc3c2OCC3)C(O)C1 (stereo not shown) [Compound 31] | 9.4
Cl.O=C(O)CCCN1CCC(CNC(=O)c2cc(Cl)cc3c2OCC3)C(O)C1 (stereo not shown) [Compound 32] | <8
CCCCN1CCC(CNC(=O)c2cc(Cl)cc3c2OCCC3)C(O)C1 (stereo not shown) [Compound 36] | 9.8
O=C(NCC1CCN(CCCO)CC1O)c1cc(Cl)cc2c1OCCC2 (stereo not shown) [Compound 39] | 9.81
O=C(NCC1CCN(Cc2ccccc2)CC1O)c1cc(Cl)cc2c1OCCC2 (stereo not shown) [Compound 41] | 9.7
O=C(CN1CCC(CNC(=O)c2cc(Cl)cc3c2OCCC3)C(O)C1)c1ccccc1.O=C(O)C(=O)O (stereo not shown) [Compound 42] | 9.5
O=C(NCC1CCN(CCCOc2ccc(F)cc2)CC1O)c1cc(Cl)cc2c1OCCC2 (stereo not shown) [Compound 43] | 9.8
O=C(NCC1CCN(CCOCCO)CC1O)c1cc(Cl)cc2c1OCCC2.O=C(O)C(=O)O (stereo not shown) [Compound 52] | 9.5
COC(=O)CCCN1CCC(CNC(=O)c2cc(Cl)cc3c2OCCC3)C(O)C1 (stereo not shown) [Compound 53] | 9.5

SMILES | pA2
Cl.O=C(O)CCCN1CCC(CNC(=O)c2cc(Cl)cc3c2OCCC3)C(O)C1 (stereo not shown) [Compound 54] | 9.8
CCCCN1CCC(CNC(=O)c2cc(Cl)cc3c2OCCO3)C(O)C1.O=C(O)C(=O)O (stereo not shown) [Compound 63] | 9.49
COCCCN1CCC(CNC(=O)c2cc(Cl)cc3c2OCCO3)C(O)C1.O=C(O)C(=O)O (stereo not shown) [Compound 66] | 9.26
O=C(NCC1CCN(CCCO)CC1O)c1cc(Cl)cc2c1OCCO2 (stereo not shown) [Compound 68] | 9.04
N#CCCCN1CCC(CNC(=O)c2cc(Cl)cc3c2OCCO3)C(O)C1.O=C(O)C(=O)O (stereo not shown) [Compound 74] | 9.22
O=C(NCC1CCN(Cc2ccccc2)CC1O)c1cc(Cl)cc2c1OCCO2 (stereo not shown) [Compound 77] | 9.19
O=C(CN1CCC(CNC(=O)c2cc(Cl)cc3c2OCCO3)C(O)C1)c1ccccc1.O=C(O)C(=O)O (stereo not shown) [Compound 78] | 8.44
O=C(NCC1CCN(CCCOc2ccc(F)cc2)CC1O)c1cc(Cl)cc2c1OCCO2 (stereo not shown) [Compound 79] | 7.93
O=C(NCC1CCN(CCCOc2ccc(F)cc2)CC1O)c1cc(Cl)cc2c1OCCO2.O=C(O)C(=O)O (stereo not shown) [Compound 80] | 8.83
CCCCN1CCC(CNC(=O)c2cc(Cl)cc3c2OCCO3)C(OC)C1.O=C(O)C(=O)O (stereo not shown) [Compound 86] | 8.2
COCCCN1CCC(CNC(=O)c2cc(Cl)cc3c2OCCO3)C(OC)C1.O=C(O)C(=O)O (stereo not shown) [Compound 87] | 8.46
COC1CN(CCCOc2ccc(F)cc2)CCC1CNC(=O)c1cc(Cl)cc2c1OCCO2.O=C(O)C(=O)O (stereo not shown) [Compound 88] | 9.2
COC1CN(Cc2ccccc2)CCC1CNC(=O)c1cc(Cl)cc2c1OCCO2 (stereo not shown) [Compound 89] | <8
Cl.O=C(NCC1CCN(CCOCCO)CC1O)c1cc(Cl)cc2c1OCCO2 (stereo not shown) [Compound 92] | 9.7
COC(=O)CCCN1CCC(CNC(=O)c2cc(Cl)cc3c2OCCO3)C(O)C1 (stereo not shown) [Compound 93] | 9.4
Cl.O=C(O)CCCN1CCC(CNC(=O)c2cc(Cl)cc3c2OCCO3)C(O)C1 (stereo not shown) [Compound 94] | 9.24
CCCCN1CCC(O)(CNC(=O)c2cc(Cl)cc3c2OCCO3)CC1.Cl [Compound 100] | <8
COCCCN1CCC(O)(CNC(=O)c2cc(Cl)cc3c2OCCO3)CC1.O=C(O)C(=O)O [Compound 101] | <7
CS(=O)(=O)CCCN1CCC(O)(CNC(=O)c2cc(Cl)cc3c2OCCO3)CC1 [Compound 103] | <8

Results, then the compound that gave them:

pA2 | SMILES
<8 | CC(=O)CCCN1CCC(O)(CNC(=O)c2cc(Cl)cc3c2OCCO3)CC1 [Compound 106]
<8 | O=C(NCC1(O)CCN(CCOCCO)CC1)c1cc(Cl)cc2c1OCCO2.O=C(O)/C=C\C(=O)O [Compound 107]
˜8 | CC(C)n1ccn(CCN2CCC(O)(CNC(=O)c3cc(Cl)cc4c3OCCO4)CC2)c1=O.O=C(O)C(=O)O [Compound 116]
<8 | O=C(NCC1(O)CCN(CCC2OCCCO2)CC1)c1cc(Cl)cc2c1OCCO2 [Compound 117]
10.65 | CCCCN1CCC(CNC(=O)c2cc(Cl)cc3c2OCCCO3)C(O)C1 (stereo not shown) [Compound 119]
9.72 | COCCCN1CCC(CNC(=O)c2cc(Cl)cc3c2OCCCO3)C(O)C1 (stereo not shown) [Compound 120]
9.9 | CC(=O)CCCN1CCC(CNC(=O)c2cc(Cl)cc3c2OCCCO3)C(O)C1 (stereo not shown) [Compound 121]
9.78 | N#CCCCN1CCC(CNC(=O)c2cc(Cl)cc3c2OCCCO3)C(O)C1 (stereo not shown) [Compound 126]
>8 | COCCCN1CCC(CNC(=O)c2cc(Cl)cc3c2OCCCO3)C(OC)C1.O=C(O)C(=O)O (stereo not shown) [Compound 129]
8.5 | CCCCN1CCC(CNC(=O)c2cc(Cl)cc3c2OCCCO3)C(OC)C1.O=C(O)C(=O)O (stereo not shown) [Compound 130]
9.5 | CCCCN1CCC(CNC(=O)c2cc(Cl)cc3c2OCCCO3)C(OC)C1.O=C(O)C(=O)O (stereo not shown) [Compound 131]
8.5 | COC1CN(Cc2ccccc2)CCC1CNC(=O)c1cc(Cl)cc2c1OCCCO2 (stereo not shown) [Compound 132]
8.1 | COC1CN(CCCC(C)=O)CCC1CNC(=O)c1cc(Cl)cc2c1OCCCO2.O=C(O)C(=O)O (stereo not shown) [Compound 135]
8.6 | COC1CN(CCCC(C)=O)CCC1CNC(=O)c1cc(Cl)cc2c1OCCCO2.O=C(O)C(=O)O (stereo not shown) [Compound 139]
10.4 | O=C(NCC1CCN(CCCO)CC1O)c1cc(Cl)cc2c1OCCCO2 (stereo not shown) [Compound 144]
9.1 | Cl.O=C(O)CCCN1CCC(CNC(=O)c2cc(Cl)cc3c2OCCCO3)C(O)C1 (stereo not shown) [Compound 146]
<8 | N#CCCCN1CCC(O)(CNC(=O)c2cc(Cl)cc3c2OCCCO3)CC1.O=C(O)C(=O)O [Compound 167]
<8 | COCCCN1CCC(O)(CNC(=O)c2cc(Cl)cc3c2OCCCO3)CC1.O=C(O)C(=O)O [Compound 168]
<8 | CS(=O)(=O)CCCN1CCC(O)(CNC(=O)c2cc(Cl)cc3c2OCCCO3)CC1.O [Compound 169]
<8 | CCCCN1CCC(O)(CNC(=O)c2cc(Cl)cc3c2OCCCO3)CC1.O=C(O)C(=O)O [Compound 171]
˜7.5 | CC(=O)CCCN1CCC(O)(CNC(=O)c2cc(Cl)cc3c2OCCCO3)CC1.O [Compound 180]
9.4 | CCCCN1CCC(CNC(=O)c2cc(Cl)cc3c2OCCCCO3)C(O)C1.O (stereo not shown) [Compound 182]
10.5 | N#CCCCN1CCC(CNC(=O)c2cc(Cl)cc3c2OCCCCO3)C(O)C1.O=C(O)C(=O)O (stereo not shown) [Compound 188]
8.3 | O=C(NCC1CCN(CCOCCO)CC1O)c1cc(Cl)cc2c1OCCCCO2 (stereo not shown) [Compound 190]
10.1 | O=C(NCC1CCN(CCCO)CC1O)c1cc(Cl)cc2c1OCCCCO2 (stereo not shown) [Compound 192]
9 | Cl.O=C(O)CCCN1CCC(CNC(=O)c2cc(Cl)cc3c2OCCCCO3)C(O)C1 (stereo not shown) [Compound 194]

same assay, conditions: 5HT4 antagonistic data; isolated rat oesophageal tunica muscularis mucosae, method of Baxter et al.; read-out: pA2 (converted)

Kb [pM] | SMILES
100 | CCCCN1CC[C@@H](CNC(=O)c2cc(Cl)cc3c2OCCO3)[C@H](O)C1 (racemic) [Compound 64, (±)-(trans)-N-[(1-butyl-3-hydroxy-4-piperidinyl)methyl]-7-chloro-2,3-dihydro-1,4-benzodioxin-5-carboxamide]
363 | CC(=O)CCCN1CC[C@@H](CNC(=O)c2cc(Cl)cc3c2OCCO3)[C@H](O)C1 (racemic) [Compound 65, (±)-(trans)-7-chloro-2,3 dihydro-N-[[3-hydroxy-1-(4-oxopentyl)-4-piperidinyl]methyl]-1,4-benzodioxin-5-carboxamide]
372 | COCCCN1CC[C@@H](CNC(=O)c2cc(Cl)cc3c2OCCO3)[C@H](O)C1 (racemic) [Compound 67, (±)-(trans)-7-chloro-2,3-dihydro-N-[[3-hydroxy-1-(3-methoxy-propyl)-4-piperidinyl]methyl]-1,4-benzodioxin-5-carboxamide]
28.2 | Cc1nccnc1NCCCN1CC[C@@H](CNC(=O)c2cc(Cl)cc3c2OCCO3)[C@H](O)C1 (racemic) [Compound 84, (±)-(trans)-7-chloro-2,3-dihydro-N-[[3-hydroxy-1-[3-[(3-methyl-2-pyrazinyl)amino]propyl]-4-piperidinyl]methyl]-1,4-benzodioxin-5-carboxamide]
302 | O=C(NC[C@@H]1CCN(CCNc2nccc(O)n2)C[C@H]1O)c1cc(Cl)cc2c1OCCO2 (relative stereo) [Compound 85, (trans)-7-chloro-2,3-dihydro-N-[[3-hydroxy-1-[2-[(4-hydroxy-2 pyrimidinyl)amino]-ethyl]-4-piperidinyl]methyl]-1,4-benzodioxin-5-carboxamide monohydrate]
